The values below come from patent US7659277B2, “Ubiquitin ligase inhibitors and methods related thereto” (Proteologies, Ltd., priority 2003, dated 2010).

Read-outs that look alike come from different tables or passages of the source.

The target in test [1] is T1, POSH (Homo sapiens, UniProt Q7Z6J0).
T1 construct: GST-POSH lot NB81/p.118 3.6 mg/ml; fused on or other part: GST tag, used for detection with anti-GST XL665
T1 sequence (Q7Z6J0 1-269 limits assumed): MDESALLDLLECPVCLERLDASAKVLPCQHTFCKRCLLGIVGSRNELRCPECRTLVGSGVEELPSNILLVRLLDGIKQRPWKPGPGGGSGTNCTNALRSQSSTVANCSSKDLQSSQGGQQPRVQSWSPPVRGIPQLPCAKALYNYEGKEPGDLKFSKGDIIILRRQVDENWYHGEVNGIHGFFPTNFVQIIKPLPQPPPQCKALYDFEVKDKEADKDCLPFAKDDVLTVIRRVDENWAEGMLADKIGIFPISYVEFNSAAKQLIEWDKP
The test can be described thus: Selectivity (% A in 1 μM), ubiquitin ligase activity of POSH. It counts as biochemical. The following applies: read-out: Selectivity (% A* in 1 μM) POSH. An outline of the steps:
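GST-POSH at 33 nM was preincubated 30 min at RT with compounds (1 mM stocks in DMSO, 5 μl into 100 μl) before addition to the E1/E2 enzyme mix. Dose-response runs used 44 nM to 4.44 μM compound in triplicate, with DMSO-only and no-E3 controls.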

The target in test [2] is Hmdm2 (Homo sapiens, UniProt Q00987). The test can be described thus: Selectivity (% A in 1 μM), ubiquitin ligase activity of Hmdm2. It counts as biochemical. Particulars: read-out: Selectivity (% A* in 1 μM) Hmdm2.
Hmdm2, sequence (Q00987 whole entry): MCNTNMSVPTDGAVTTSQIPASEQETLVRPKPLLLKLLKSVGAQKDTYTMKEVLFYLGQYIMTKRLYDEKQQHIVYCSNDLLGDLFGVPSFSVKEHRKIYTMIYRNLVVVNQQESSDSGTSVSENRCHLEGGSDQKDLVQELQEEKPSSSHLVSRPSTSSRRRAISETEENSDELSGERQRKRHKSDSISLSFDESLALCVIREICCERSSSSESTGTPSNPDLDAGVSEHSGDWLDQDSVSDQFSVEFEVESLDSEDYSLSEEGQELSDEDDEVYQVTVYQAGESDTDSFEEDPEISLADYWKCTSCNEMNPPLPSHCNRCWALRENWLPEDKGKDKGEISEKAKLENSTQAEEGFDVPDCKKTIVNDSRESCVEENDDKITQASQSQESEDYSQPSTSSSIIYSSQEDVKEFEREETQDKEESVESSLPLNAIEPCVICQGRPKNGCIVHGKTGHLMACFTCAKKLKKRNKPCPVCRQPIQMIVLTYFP
The mark [3] stands for this setting: % activity at 1 μM compound, control is related to 100% activity, HTS protocol.

Consider `Cc1cc(OC(=O)Cn2c(=O)sc3ccccc32)ccc1Cl` [Compound 103], for which the remaining activity at 1 µM in test [1] turned out to be 102%; in test [2], 100%.
As for `Cc1ccc(C(=O)NN=C2CCC(=NNC(=O)c3ccc(C)cc3)CC2)cc1` [Compound 93], the results for the remaining activity at 1 µM in test [1] (setting [3]) and in test [2] (setting [3]) were 21% and 106%, respectively.
On to `CN(C)c1ccc(/C=C2/C(=O)NC(=O)N(C3CCCCC3)C2=O)cc1` [Compound 3], for which the remaining activity at 1 µM in test [1] (setting [3]) amounted to 47%; in test [2] (setting [3]), 102%.
Consider `Cc1cc(O)c(C(=O)/C=C/c2cccc(I)c2)c(=O)o1` [Compound 87], for which the remaining activity at 1 µM was 33% in test [1] and 119% in test [2].
On to `O=C(Cc1ccccc1)N1N=CCC1(O)c1ccc(F)cc1` (stereo not drawn) [Compound 94], for which the remaining activity at 1 µM in test [1] (setting [3]) stood at 71%; in test [2] (setting [3]) it was 103%.
In the case of `O=C1c2ccccc2-c2nc3nonc3nc21` [Compound 91], the remaining activity at 1 µM in test [1] was 11%; in test [2], 62%.
As for `O=C(/C=C/c1cccnc1)c1ccc(C(=O)/C=C/c2cccnc2)cc1` [Compound 92], the remaining activity at 1 µM came to 21% in test [1] (setting [3]) and 105% in test [2] (setting [3]).
As for `O=C(NC(C(Cl)(Cl)Cl)S(=O)(=O)c1ccccc1)c1ccc(Cl)cc1Cl` (stereo not drawn) [Compound 88], the remaining activity at 1 µM in test [1] is 172%; in test [2], 118%.
As to `O=C(Nc1cccc2c(NC(=O)C3C4CCCCC43)cccc12)C1C2CCCCC21` (stereo not drawn) [Compound 97], the figures for the remaining activity at 1 µM in test [1] and in test [2] were 13% and 123%, respectively.
On to `COc1ccc(Nc2ccc(O)c3c2C(=O)c2ccccc2C3=O)cc1` [Compound 100], for which the remaining activity at 1 µM was 99% in test [1] (setting [3]) and 75% in test [2] (setting [3]).
Turning to `O=C(O)COc1ccc2c(c1)oc(=O)c1ccccc12` [Compound 85], the remaining activity at 1 µM was found to be 26% in test [1] and 94% in test [2].
Turning to `COC(=O)C1=C(C(=O)OC)SC(=C2C(=S)C(C)(C)N(C(C)=O)c3cc(C)ccc32)S1` [Compound 99], the figures for the remaining activity at 1 µM in test [1] (setting [3]) and in test [2] (setting [3]) were 36% and 101%, respectively.
Taken in the same sequence, the figures for `Cc1[nH]c(=O)c(C(=O)/C=C/c2ccccc2F)c2c1CCCC2` [Compound 95] were 12% and 98%.
On to `COc1ccc(C(=O)CC2=C(O)C(=O)c3ccccc3C2=O)cc1` [Compound 89], for which the remaining activity at 1 µM in test [1] (setting [3]) stood at 45%; in test [2] (setting [3]) it was 79%.
Taken in the same sequence, the figures for `COc1cc(C2Nc3ccccc3NC3=C2C(=O)CC(C)(C)C3)cc(Br)c1O` (stereo not drawn) [Compound 102] were 52% and 97%.
Taken in the same sequence, the figures for `O=C(NCc1ccc(Cl)cc1)C(=O)Nc1ccccc1` [Compound 104] were 111% and 145%.
Turning to `O=C1NC(=O)N(c2ccccc2)C(=O)/C1=C\c1ccc2c(c1)OCO2` [Compound 4], the remaining activity at 1 µM in test [1] (setting [3]) was found to be 48%; in test [2] (setting [3]), 105%.
For `O=c1oc2ccccc2c(O)c1C(=S)Nc1ccccc1` [Compound 96], the remaining activity at 1 µM turned out to be 105% in test [1] and 90% in test [2].
